Test results as given in PubChem BioAssay (NCI).
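1) Cells in 96-well plates. 2) Compound, 48 h, 5 concentrations. 3) Linear interpolation between surrounding doses. 4) Unreached endpoint = highest concentration. Definition used: TGI = concentration required for complete inhibition of growth.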

Legend:
Assay in all cases: DTP human tumour cell line panel, 48 h
OVCAR-8 ovarian = tested on: OVCAR-8 ovarian
HT29 colon = tested on: HT29 colon
DU-145 prostate = tested on: DU-145 prostate
SK-MEL-2 melanoma = tested on: SK-MEL-2 melanoma
HOP-62 NSCLC = tested on: HOP-62 NSCLC
SF-268 CNS = tested on: SF-268 CNS
EKVX NSCLC = tested on: EKVX NSCLC
COLO 205 colon = tested on: COLO 205 colon
SF-539 CNS = tested on: SF-539 CNS
MOLT-4 leukemia = tested on: MOLT-4 leukemia
M14 melanoma = tested on: M14 melanoma
ACHN renal = tested on: ACHN renal
NCI-H460 lung = tested on: NCI-H460 lung
MDA-MB-435 = tested on: MDA-MB-435
HCT-15 colon = tested on: HCT-15 colon
A549 NSCLC = tested on: A549 NSCLC
SNB-75 CNS = tested on: SNB-75 CNS
NCI-H522 lung = tested on: NCI-H522 lung
SK-MEL-28 melanoma = tested on: SK-MEL-28 melanoma
TK-10 renal = tested on: TK-10 renal
UACC-257 melanoma = tested on: UACC-257 melanoma
786-0 renal = tested on: 786-0 renal
SNB-19 CNS = tested on: SNB-19 CNS
K-562 leukemia = tested on: K-562 leukemia
UACC-62 melanoma = tested on: UACC-62 melanoma
RPMI-8226 leukemia = tested on: RPMI-8226 leukemia
UO-31 renal = tested on: UO-31 renal
SK-OV-3 ovarian = tested on: SK-OV-3 ovarian
NCI-H23 lung = tested on: NCI-H23 lung
SR leukemia = tested on: SR leukemia
MALME-3M melanoma = tested on: MALME-3M melanoma
LOX IMVI melanoma = tested on: LOX IMVI melanoma
MDA-MB-231 breast = tested on: MDA-MB-231 breast
OVCAR-4 ovarian = tested on: OVCAR-4 ovarian
MDA-N = tested on: MDA-N
T-47D breast = tested on: T-47D breast
SF-295 CNS = tested on: SF-295 CNS
KM12 colon = tested on: KM12 colon
MCF7 breast = tested on: MCF7 breast
OVCAR-5 ovarian = tested on: OVCAR-5 ovarian
OVCAR-3 ovarian = tested on: OVCAR-3 ovarian
U251 CNS = tested on: U251 CNS
CAKI-1 renal = tested on: CAKI-1 renal
SK-MEL-5 melanoma = tested on: SK-MEL-5 melanoma
HS 578T breast = tested on: HS 578T breast
NCI/ADR-RES ovarian = tested on: NCI/ADR-RES ovarian
NCI-H226 lung = tested on: NCI-H226 lung
A498 renal = tested on: A498 renal
SN12C renal = tested on: SN12C renal
HOP-92 NSCLC = tested on: HOP-92 NSCLC
HCT-116 colon = tested on: HCT-116 colon
BT-549 breast = tested on: BT-549 breast
HL-60(TB) leukemia = tested on: HL-60(TB) leukemia
PC-3 prostate = tested on: PC-3 prostate
CCRF-CEM leukemia = tested on: CCRF-CEM leukemia
IGROV1 ovarian = tested on: IGROV1 ovarian
SW-620 colon = tested on: SW-620 colon
RXF 393 renal = tested on: RXF 393 renal

## Cc1noc(NC2=CC(=O)C(=O)c3ccccc32)c1C
OVCAR-8 ovarian
  TGI: > 100 µM
HT29 colon
  TGI: 88 µM
DU-145 prostate
  TGI: > 100 µM
SK-MEL-2 melanoma
  TGI: 5.8 µM
HOP-62 NSCLC
  TGI: > 100 µM
SF-268 CNS
  TGI: > 100 µM
EKVX NSCLC
  TGI: > 100 µM
COLO 205 colon
  TGI: > 100 µM
SF-539 CNS
  TGI: 14.1 µM
MOLT-4 leukemia
  TGI: 47.4 µM
M14 melanoma
  TGI: > 100 µM
ACHN renal
  TGI: > 100 µM
NCI-H460 lung
  TGI: > 100 µM
MDA-MB-435
  TGI: 0.397 µM
HCT-15 colon
  TGI: > 100 µM
A549 NSCLC
  TGI: 55.3 µM
SNB-75 CNS
  TGI: 82.5 µM
NCI-H522 lung
  TGI: 79.2 µM
SK-MEL-28 melanoma
  TGI: > 100 µM
TK-10 renal
  TGI: > 100 µM
UACC-257 melanoma
  TGI: 64 µM
786-0 renal
  TGI: > 100 µM
SNB-19 CNS
  TGI: > 100 µM
K-562 leukemia
  TGI: 0.872 µM
UACC-62 melanoma
  TGI: 22.9 µM
RPMI-8226 leukemia
  TGI: 36 µM
UO-31 renal
  TGI: > 100 µM
SK-OV-3 ovarian
  TGI: > 100 µM
NCI-H23 lung
  TGI: 35.5 µM
SR leukemia
  TGI: > 100 µM
MALME-3M melanoma
  TGI: 17.6 µM
LOX IMVI melanoma
  TGI: > 100 µM
MDA-MB-231 breast
  TGI: > 100 µM
OVCAR-4 ovarian
  TGI: > 100 µM
MDA-N
  TGI: 1.57 µM
T-47D breast
  TGI: > 100 µM
SF-295 CNS
  TGI: > 100 µM
KM12 colon
  TGI: 32.7 µM
MCF7 breast
  TGI: 17.9 µM
OVCAR-5 ovarian
  TGI: > 100 µM
OVCAR-3 ovarian
  TGI: > 100 µM
U251 CNS
  TGI: > 100 µM
CAKI-1 renal
  TGI: > 100 µM
SK-MEL-5 melanoma
  TGI: 3.75 µM
HS 578T breast
  TGI: > 100 µM
NCI/ADR-RES ovarian
  TGI: 21.4 µM
NCI-H226 lung
  TGI: > 100 µM
A498 renal
  TGI: > 100 µM
SN12C renal
  TGI: 3.7 µM
HOP-92 NSCLC
  TGI: 78.1 µM
HCT-116 colon
  TGI: > 100 µM
BT-549 breast
  TGI: 50.2 µM
HL-60(TB) leukemia
  TGI: 52.2 µM
PC-3 prostate
  TGI: > 100 µM

## CC1C2(C)OC(=N)C(C#N)(C(c3cccc([N+](=O)[O-])c3)O2)C1(C#N)C#N (centres undefined)
OVCAR-8 ovarian
  TGI: > 100 µM
HT29 colon
  TGI: 74.6 µM
DU-145 prostate
  TGI: > 100 µM
SK-MEL-2 melanoma
  TGI: 61.7 µM
SF-268 CNS
  TGI: > 100 µM
EKVX NSCLC
  TGI: 98.3 µM
COLO 205 colon
  TGI: 27.5 µM
SF-539 CNS
  TGI: 34.2 µM
MOLT-4 leukemia
  TGI: > 100 µM
M14 melanoma
  TGI: 38.7 µM
ACHN renal
  TGI: > 100 µM
NCI-H460 lung
  TGI: 29.7 µM
A549 NSCLC
  TGI: > 100 µM
CCRF-CEM leukemia
  TGI: 52.2 µM
SNB-75 CNS
  TGI: > 100 µM
SK-MEL-28 melanoma
  TGI: 47.5 µM
TK-10 renal
  TGI: > 100 µM
UACC-257 melanoma
  TGI: 49.6 µM
786-0 renal
  TGI: 45.2 µM
SNB-19 CNS
  TGI: > 100 µM
K-562 leukemia
  TGI: > 100 µM
IGROV1 ovarian
  TGI: > 100 µM
UACC-62 melanoma
  TGI: 42.7 µM
UO-31 renal
  TGI: > 100 µM
SW-620 colon
  TGI: 31.3 µM
SK-OV-3 ovarian
  TGI: > 100 µM
NCI-H23 lung
  TGI: > 100 µM
MALME-3M melanoma
  TGI: 73 µM
LOX IMVI melanoma
  TGI: 36 µM
RXF 393 renal
  TGI: 43.9 µM
MDA-MB-231 breast
  TGI: 32 µM
MDA-N
  TGI: 32.4 µM
T-47D breast
  TGI: 35.9 µM
SF-295 CNS
  TGI: > 100 µM
KM12 colon
  TGI: > 100 µM
MCF7 breast
  TGI: 50.2 µM
OVCAR-5 ovarian
  TGI: > 100 µM
U251 CNS
  TGI: 53.8 µM
CAKI-1 renal
  TGI: 24.4 µM
SK-MEL-5 melanoma
  TGI: 20.9 µM
HS 578T breast
  TGI: > 100 µM
NCI/ADR-RES ovarian
  TGI: > 100 µM
NCI-H226 lung
  TGI: > 100 µM
A498 renal
  TGI: > 100 µM
SN12C renal
  TGI: 28.1 µM
HOP-92 NSCLC
  TGI: 33.1 µM
HCT-116 colon
  TGI: 40.4 µM
BT-549 breast
  TGI: > 100 µM
HL-60(TB) leukemia
  TGI: 39 µM
PC-3 prostate
  TGI: > 100 µM
